Test system: HEK293 NOD2/MDP-induced NF-kB reporter, inhibition
Experiment: inhibition of MDP-driven NOD2 NF-kB reporter – cell-based, set 3, SAR follow-up (AID 2799)

For CCCCn1c(SCC(=O)Nc2nnc(CC)s2)nc2c1c(=O)n(C)c(=O)n2C, the IC50 was 7.12 µM.
